BindingDB's records for patent US10202378 (Genentech, 2019)

How the values were obtained:
[1] = target: T1, Transcription initiation factor TFIID subunit 1 [1504-1635] (Homo sapiens, UniProt P21675); test: TR-FRET Binding Assay
T1 construct: 1504-1635
T1 sequence (P21675 whole entry): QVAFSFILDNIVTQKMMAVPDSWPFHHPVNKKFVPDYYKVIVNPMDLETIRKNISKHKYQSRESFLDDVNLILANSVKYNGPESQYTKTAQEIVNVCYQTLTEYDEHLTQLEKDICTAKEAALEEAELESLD
Protocol: After a 10 minute incubation at room temperature, biotin-ligand (0.04 uM final) was added. […] After forty minutes of equilibration at room temperature, the plates were read on an Envision instrument and IC50s calculated using a four parameter logistic model (XLFIT).

[2] = target: T2, Transcription initiation factor TFIID subunit 1 [1381-1497] (Homo sapiens, UniProt P21675); test: TAF1-BD1 TR-FRET Binding Assay
T2 construct: 1381-1497
T2 sequence (P21675 whole entry): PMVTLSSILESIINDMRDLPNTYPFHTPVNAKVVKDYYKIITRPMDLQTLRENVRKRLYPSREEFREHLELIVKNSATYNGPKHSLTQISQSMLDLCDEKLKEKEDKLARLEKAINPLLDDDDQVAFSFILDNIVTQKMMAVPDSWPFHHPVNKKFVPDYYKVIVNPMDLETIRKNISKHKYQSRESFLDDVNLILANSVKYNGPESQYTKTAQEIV
Protocol: Specifically, in a 384 well ProxiPlate, TAF1-BDI (0.08 uM final) in 50 mM HEPES (pH 7.5; final), 50 mM NaCl (final), 1 mM TCEP (final), 0.1 mg/mL BSA (final), and 0.069 mM Brij-35 (final) was added either in the presence of DMSO (final 0.2% DMSO) or compound dilution series in DMSO. After a 10 minute incubation at room temperature, biotin-ligand (0.08 uM final) was added. After 10 minutes incubation at room temperature, a mixture Eu-W1024 Anti-6×His antibody (Perkin Elmer ADO 110) and SureLight Streptavidin-Allophycocyanin (SA-APC, Perkin Elmer CR130-100) were added to final concentrations of 0.2 nM antibody and 0.05 uM SA-APC, respectively. After forty minutes of equilibration at room temperature, the plates were read on an Envision instrument and IC50s calculated using a four parameter logistic model (XLFIT).

Row | Structure (SMILES) | IC50 [1] [nM] | IC50 [2] [nM]
1 | CCOC(=O)c1c(C)[nH]c2c(=O)n(C)cc(C#CC(C)(C)N)c12 [US10202378, Example 67] | 4110 | 5210
2 | CCOC(=O)c1c(C)[nH]c2c(=O)n(C)cc(C#CC(C)(O)CNc3ccccc3)c12 (stereo unspecified) [US10202378, Example 14] | 14800 | > 20000
3 | CCOC(=O)c1c(C)[nH]c2c(=O)n(C)cc(C#CC(C)(O)CC)c12 (stereo unspecified) [US10202378, Example 65] | 135 | 826
4 | CCOC(=O)c1c(C)[nH]c2c(=O)n(C)cc(C#CC3(O)CCN(C(C)=O)CC3)c12 [US10202378, Example 11] | 80 | 1490
5 | CCOC(=O)c1c(C)[nH]c2c(=O)n(C)cc(C#CC(C)(O)C3CCOC3)c12 (stereo unspecified) [US10202378, Example 7] | 181 | 607
6 | CCOC(=O)c1c(C)[nH]c2c(=O)n(C)cc(C#CC(C)(O)C3(C)CC3)c12 (stereo unspecified) [US10202378, Example 4] | 72.7 | 352
7 | CCOC(=O)c1c(C)[nH]c2c(=O)n(C)cc(C#CC3(O)CCN(C(=O)CC)CC3)c12 [US10202378, Example 10] | 58.9 | 2230
8 | CCC(C)C(C)OC(=O)c1c(C)[nH]c2c(=O)n(C)cc(C#CC(C)(C)O)c12 (stereo unspecified) [US10202378, Example 145] | 53.3 | 272
9 | CCOC(=O)c1c(C)[nH]c2c(=O)n(C)cc(C#CC(O)(c3ccc(N(C)C)cc3)C(F)(F)F)c12 (stereo unspecified) [US10202378, Example 3] | 86.3 | 209
10 | CCOC(=O)c1c(C)[nH]c2c(=O)n(C)cc(C#CC(C)(O)c3nccs3)c12 (stereo unspecified) [US10202378, Example 68] | 122 | 521
11 | Cc1[nH]c2c(=O)n(C)cc(C#CC(C)(O)C3CC3)c2c1-c1nnc(CO)o1 (stereo unspecified) [US10202378, Example 206] | 73.5 | 425
12 | CCOC(=O)c1c(C)[nH]c2c(=O)n(C)cc(C#CC(C)(O)CO)c12 (stereo unspecified) [US10202378, Example 66] | 100 | 798
13 | CCOC(=O)c1c(C)[nH]c2c(=O)n(CC3CC3)cc(C#CC(C)(C)O)c12 [US10202378, Example 52] | 155 | 8660
14 | CN(C)C(=O)c1c[nH]c2c(=O)n(C)cc(C#CC(C)(C)O)c12 [US10202378, Example 171] | 1730 | 4420
15 | Cc1[nH]c2c(=O)n(C)cc(C#CC(C)(C)O)c2c1C(=O)OC(C)C(C)C (stereo unspecified) [US10202378, Example 152] | 53.6 | 235

Further lines, results first:

Row | IC50 [1] [nM] | IC50 [2] [nM] | Structure (SMILES)
16 | 52.8 | 274 | Cc1[nH]c2c(=O)n(C)cc(C#CC(C)(C)O)c2c1C(=O)OCC1CC1 [US10202378, Example 155]
17 | 51.1 | 274 | Cc1[nH]c2c(=O)n(C)cc(C#CC(C)(O)c3ccccc3)c2c1C(=O)OC(C)C (stereo unspecified) [US10202378, Example 161]
18 | 50.9 | 303 | CCOC(=O)c1c(C)[nH]c2c(=O)n(C)cc(C#CC(C)(O)c3cccc(C)c3)c12 (stereo unspecified) [US10202378, Example 29]
19 | 49 | 243 | CCOC(=O)c1c(C)[nH]c2c(=O)n(C)cc(C#CC(C)(O)C3CC3)c12 (stereo unspecified) [US10202378, Example 77]
20 | 52.8 | 160 | Cc1cc([C@](C)(O)C#Cc2cn(C)c(=O)c3[nH]c(C)c(C(=O)OC(C)C(C)C)c23)no1 (stereo partly specified) [US10202378, Example 142]
21 | 47.9 | 251 | CCC(C)(C)OC(=O)c1c(C)[nH]c2c(=O)n(C)cc(C#CC(C)(O)C3CC3)c12 (stereo unspecified) [US10202378, Example 138]
22 | 37.5 | 350 | CC(=O)NCCCOC(=O)c1c(C)[nH]c2c(=O)n(C)cc(C#CC(C)(O)C3CC3)c12 (stereo unspecified) [US10202378, Example 140]
23 | 20.1 | 267 | CC(=O)N1CCC(COC(=O)c2c(C)[nH]c3c(=O)n(C)cc(C#CC(C)(C)O)c23)CC1 [US10202378, Example 144]
